# Source: patent US20090233942A1, “Genetic markers associated with response to antidepressants” (priority 2008, published 2009)
# Tested on: adult patients diagnosed with MDD
# Test: Eight-week randomized, double-blind, placebo-controlled study: association of sequenced gene markers (Tables 1-17) with vilazodone response as change of MADRS
# Assay type: in vivo, human
# Details: mean MADRS decrease
# Text: There was a wide range of inter-individual variability in response to vilazodone as well as to placebo and the active comparators. This variability may be partially due to genetic differences among the individuals treated. This example illustrates a randomized, double-blind, placebo-controlled, multicenter, eight-week study designed to discover genetic markers of response to vilazodone in adult patients diagnosed with MDD by the DSM-IV-TR criteria. Patients must have met all of the following inclusion criteria to be considered for enrollment in the study: (1) 18-65 years of age; (2) diagnosis of MDD, single episode or recurrent, according to DSM-IV-TR (296.2/296.3) with a current Major Depressive Episode of less than one year's duration with a minimum duration of at least 4 weeks; (3) HAM-D score≧22 on the first 17 items of the 21-item HAM-D at screening and baseline visits; (4) HAM-D item 1 (depressed mood) score≧2 at the screening visit and the baseline visit; (5) provision of written informed consent to participate; and (6) ability to speak, read and understand English and to respond to questions and follow simple instructions.
# Following randomization into vilazodone and placebo groups, patients began the forced titration schedule. Patients received 10 mg qd until Visit 3 (approximately Day 7). At Visit 3 patients received 20 mg qd until Visit 4 (approximately Day 14). At Visit 4 patients received the target dose of 40 mg qd (approximately Day 15). A total of 152 patients completed the vilazodone arm, while 154 patients completed the placebo arm.
# This example illustrates genotyping of the study group for the ACE, ATP5C3, BCL2L1, CYP2C9, DRD3, FOS, DTNBP1, GABRG3, GRIA4, LAMA4, MAPK1, NPY1R, OPRD1, OPRM1, PER3, PLCB1, and PSMD1 polymorphic sites selected by the inventors herein for analysis. Genomic DNA was isolated from blood obtained from each individual and amplified target regions containing the polymorphic sites in Tables A-21 to A-37 (Appendix A) were sequenced to determine the genotypes at these polymorphic sites. Tailed (Universal M13 Forward and Reverse) PCR primers were designed using the sequence of SEQ ID NO:1 for ACE, SEQ ID NO:2 for ATP5C3, SEQ ID NO:3 for BCL2L1, SEQ ID NO:4 for CYP2C9, SEQ ID NO:5 for DRD3, SEQ ID NO:6 for FOS, SEQ ID NO:7 for DTNBP1, SEQ ID NO:8 for GABRG3, SEQ ID NO:9 for GRIA4, SEQ ID NO:10 for LAMA4, SEQ ID NO:11 for MAPK1, SEQ ID NO:12 for NPY1R, SEQ ID NO:13 for OPRD1, SEQ ID NO:14 for OPRM1, SEQ ID NO:15 for PER3, SEQ ID NO:16 for PLCB1, and SEQ ID NO:17 for PSMD1. Amplified PCR products were sequenced using Applied Biosystems' Big Dye® Terminator v 3.1 cycle sequencing kit according to manufacturer's instructions. The reaction products were then electrophoresed using an Applied Biosystems 3700 or 3730xl DNA analyzer. Polymorphisms were identified using the Polyphred program, and confirmed by visual inspection.
# Haplotypes were estimated from the unphased genotypes using a computer-implemented algorithm for assigning haplotypes to unrelated individuals in a population sample, essentially as described in WO 01/80156. In this method, haplotypes are assigned directly from individuals who are homozygous at all sites or heterozygous at no more than one of the variable sites. This list of haplotypes is then used to deconvolute the unphased genotypes in the remaining (multiply heterozygous) individuals.
# This example illustrates analysis of the markers in Tables A-1 to A-17 (Appendix A) for association with vilazodone response. A proprietary algorithm was used as a tool for finding associations between markers and outcomes. The clinical outcomes were improvement in disease over eight weeks of treatment with vilazodone as measured by the MADRS scale. A linear model was first fitted on the covariates, which were treatment center, race, ethnicity, and baseline values. […]
# [1] = PLCB1 marker 54, carriers vs non-carriers
# [2] = PLCB1 marker 55, carriers vs non-carriers
# [3] = PLCB1 marker 56, carriers vs non-carriers
# [4] = PLCB1 marker 57, carriers vs non-carriers
# [5] = PLCB1 marker 58, carriers vs non-carriers
# [6] = PLCB1 marker 59, carriers vs non-carriers
# [7] = PLCB1 marker 60, carriers vs non-carriers
# [8] = PLCB1 marker 61, carriers vs non-carriers
# [9] = PLCB1 marker 62, carriers vs non-carriers
# [10] = PLCB1 marker 63, carriers vs non-carriers
# [11] = PLCB1 marker 64, carriers vs non-carriers
# [12] = PLCB1 marker 65, carriers vs non-carriers
# [13] = PLCB1 marker 66, carriers vs non-carriers
# [14] = PLCB1 marker 67, carriers vs non-carriers
# [15] = PLCB1 marker 68, carriers vs non-carriers
# [16] = PLCB1 marker 96, carriers vs non-carriers
# [17] = PLCB1 marker 97, carriers vs non-carriers
# [18] = PLCB1 marker 98, carriers vs non-carriers
# [19] = PLCB1 marker 99, carriers vs non-carriers
# [20] = PLCB1 marker 100, carriers vs non-carriers
# [21] = PLCB1 marker 101, carriers vs non-carriers
# [22] = PLCB1 marker 102, carriers vs non-carriers
# [23] = PLCB1 marker 103, carriers vs non-carriers
# [24] = PLCB1 marker 104, carriers vs non-carriers
# [25] = PLCB1 marker 105, carriers vs non-carriers
# [26] = PLCB1 marker 106, carriers vs non-carriers
# [27] = PLCB1 marker 107, carriers vs non-carriers
# [28] = PLCB1 marker 108, carriers vs non-carriers
# [29] = PLCB1 marker 109, carriers vs non-carriers
# [30] = PLCB1 marker 110, carriers vs non-carriers
# [31] = PLCB1 marker 111, carriers vs non-carriers
# [32] = PLCB1 marker 112, carriers vs non-carriers
# [33] = PLCB1 marker 113, carriers vs non-carriers
# [34] = PLCB1 marker 114, carriers vs non-carriers
# [35] = PLCB1 marker 115, carriers vs non-carriers
# [36] = PLCB1 marker 116, carriers vs non-carriers
# [37] = PLCB1 marker 117, carriers vs non-carriers
# [38] = PLCB1 marker 118, carriers vs non-carriers
# [39] = PLCB1 marker 119, carriers vs non-carriers
# [40] = PLCB1 marker 120, carriers vs non-carriers
# [41] = PLCB1 marker 121, carriers vs non-carriers
# [42] = PLCB1 marker 122, carriers vs non-carriers
# [43] = PLCB1 marker 123, carriers vs non-carriers
# [44] = PLCB1 marker 124, carriers vs non-carriers
# [45] = PLCB1 marker 125, carriers vs non-carriers
# [46] = PLCB1 marker 126, carriers vs non-carriers
# [47] = PLCB1 marker 127, carriers vs non-carriers
# [48] = PLCB1 marker 128, carriers vs non-carriers
# [49] = PLCB1 marker 129, carriers vs non-carriers
# [50] = PLCB1 marker 130, carriers vs non-carriers
smiles,measurement,setting,value
"Cl.N#Cc1ccc2[nH]cc(CCCCN3CCN(c4ccc5oc(C(N)=O)cc5c4)CC3)c2c1 [Vilazodone, 5-{4-[4-(5-Cyano-3-indolyl)-butyl]-1-piperazinyl}-benzofuran-2-carboxamide hydrochloride]",Response difference (Cauc. only),[1],−6.6
same,Response difference (all ethnic.),[1],−5.1
same,Response difference (Cauc. only),[2],−5.9
same,Response difference (all ethnic.),[2],−4.3
same,Response difference (Cauc. only),[3],−6
same,Response difference (all ethnic.),[3],−4.3
same,Response difference (Cauc. only),[4],−6
same,Response difference (all ethnic.),[4],−4.3
same,Response difference (Cauc. only),[5],−5.4
same,Response difference (all ethnic.),[5],−3.9
same,Response difference (Cauc. only),[6],−6.4
same,Response difference (all ethnic.),[6],−5.1
same,Response difference (Cauc. only),[7],−5.8
same,Response difference (all ethnic.),[7],−4.6
same,Response difference (Cauc. only),[8],−6.4
same,Response difference (all ethnic.),[8],−5.2
same,Response difference (Cauc. only),[9],−7
same,Response difference (all ethnic.),[9],−5.6
same,Response difference (Cauc. only),[10],−7
same,Response difference (all ethnic.),[10],−5.6
same,Response difference (Cauc. only),[11],−7
same,Response difference (all ethnic.),[11],−5.6
same,Response difference (Cauc. only),[12],−7
same,Response difference (all ethnic.),[12],−5.6
same,Response difference (Cauc. only),[13],−7
same,Response difference (all ethnic.),[13],−5.6
same,Response difference (Cauc. only),[14],−7
same,Response difference (all ethnic.),[14],−5.6
same,Response difference (Cauc. only),[15],−7
same,Response difference (all ethnic.),[15],−5.6
same,Response difference (Cauc. only),[16],−7.3
same,Response difference (all ethnic.),[16],−4.2
same,Response difference (Cauc. only),[17],−7.3
same,Response difference (all ethnic.),[17],−4.2
same,Response difference (Cauc. only),[18],−7.3
same,Response difference (all ethnic.),[18],−4.2
same,Response difference (Cauc. only),[19],−7.3
same,Response difference (all ethnic.),[19],−4.2
same,Response difference (Cauc. only),[20],−7.3
same,Response difference (all ethnic.),[20],−4.2
same,Response difference (Cauc. only),[21],−6
same,Response difference (all ethnic.),[21],−4.7
same,Response difference (Cauc. only),[22],−6
same,Response difference (all ethnic.),[22],−4.7
same,Response difference (Cauc. only),[23],−6.6
same,Response difference (all ethnic.),[23],−4.6
same,Response difference (Cauc. only),[24],−6.6
same,Response difference (all ethnic.),[24],−4.6
same,Response difference (Cauc. only),[25],−6.6
same,Response difference (all ethnic.),[25],−4.6
same,Response difference (Cauc. only),[26],−6.6
same,Response difference (all ethnic.),[26],−4.6
same,Response difference (Cauc. only),[27],−6.6
same,Response difference (all ethnic.),[27],−4.6
same,Response difference (Cauc. only),[28],−6.6
same,Response difference (all ethnic.),[28],−4.6
same,Response difference (Cauc. only),[29],−6.6
same,Response difference (all ethnic.),[29],−4.6
same,Response difference (Cauc. only),[30],−6.7
same,Response difference (all ethnic.),[30],−4.7
same,Response difference (Cauc. only),[31],−6.7
same,Response difference (all ethnic.),[31],−4.7
same,Response difference (Cauc. only),[32],−6.7
same,Response difference (all ethnic.),[32],−4.7
same,Response difference (Cauc. only),[33],−6.7
same,Response difference (all ethnic.),[33],−4.7
same,Response difference (Cauc. only),[34],−6.7
same,Response difference (all ethnic.),[34],−4.7
same,Response difference (Cauc. only),[35],−6.7
same,Response difference (all ethnic.),[35],−4.7
same,Response difference (Cauc. only),[36],−6.7
same,Response difference (all ethnic.),[36],−4.7
same,Response difference (Cauc. only),[37],−6.7
same,Response difference (all ethnic.),[37],−4.7
same,Response difference (Cauc. only),[38],−6.7
same,Response difference (all ethnic.),[38],−4.7
same,Response difference (Cauc. only),[39],−6.7
same,Response difference (all ethnic.),[39],−4.7
same,Response difference (Cauc. only),[40],−6.7
same,Response difference (all ethnic.),[40],−4.7
same,Response difference (Cauc. only),[41],−6.7
same,Response difference (all ethnic.),[41],−4.7
same,Response difference (Cauc. only),[42],−6.7
same,Response difference (all ethnic.),[42],−4.7
same,Response difference (Cauc. only),[43],−6.7
same,Response difference (all ethnic.),[43],−4.7
same,Response difference (Cauc. only),[44],−5.9
same,Response difference (all ethnic.),[44],−4.2
same,Response difference (Cauc. only),[45],−5.9
same,Response difference (all ethnic.),[45],−4.2
same,Response difference (Cauc. only),[46],−5.9
same,Response difference (all ethnic.),[46],−4.2
same,Response difference (Cauc. only),[47],−5.9
same,Response difference (all ethnic.),[47],−4.2
same,Response difference (Cauc. only),[48],−5.9
same,Response difference (all ethnic.),[48],−4.2
same,Response difference (Cauc. only),[49],−5.9
same,Response difference (all ethnic.),[49],−4.2
same,Response difference (Cauc. only),[50],−5.9
same,Response difference (all ethnic.),[50],−4.2
